The target of the assay is T1, Polyunsaturated fatty acid 5-lipoxygenase (Homo sapiens, UniProt P09917).
T1 sequence (P09917 whole entry): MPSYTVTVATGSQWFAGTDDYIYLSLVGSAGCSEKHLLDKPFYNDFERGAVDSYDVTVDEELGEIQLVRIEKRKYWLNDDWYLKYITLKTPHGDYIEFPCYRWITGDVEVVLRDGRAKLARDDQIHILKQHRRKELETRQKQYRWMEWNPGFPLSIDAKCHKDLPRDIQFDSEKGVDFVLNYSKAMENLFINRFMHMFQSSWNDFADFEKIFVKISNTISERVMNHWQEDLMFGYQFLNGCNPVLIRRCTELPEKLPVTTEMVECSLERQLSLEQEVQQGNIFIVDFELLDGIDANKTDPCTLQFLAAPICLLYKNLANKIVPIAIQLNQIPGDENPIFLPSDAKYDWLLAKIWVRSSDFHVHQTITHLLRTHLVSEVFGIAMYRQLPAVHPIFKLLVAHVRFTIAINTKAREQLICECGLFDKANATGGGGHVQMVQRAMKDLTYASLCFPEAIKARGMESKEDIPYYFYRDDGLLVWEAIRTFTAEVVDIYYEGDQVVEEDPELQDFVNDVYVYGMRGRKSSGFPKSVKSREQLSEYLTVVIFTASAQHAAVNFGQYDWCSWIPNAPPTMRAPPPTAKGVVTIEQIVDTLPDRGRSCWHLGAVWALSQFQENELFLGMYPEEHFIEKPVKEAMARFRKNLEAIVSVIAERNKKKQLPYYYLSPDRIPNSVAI
Briefly: Inhibition of lipoxygenase 5 product formation from endogenous substrate in Calcium and ionophore-stimulated polymorphonuclear leukocyte.
Regarding `CC(=O)O[C@@H]1CC[C@]2(C)C3=CC=C4[C@@H]5[C@@H](C)[C@H](C)CC[C@]5(C)CC[C@@]4(C)[C@]3(C)CC[C@H]2[C@@]1(C)C(=O)O`, the IC50 (as a rule, the concentration that inhibits the measured activity by half) worked out at 750 nM.

For `C[C@H]1[C@H](C)CC[C@]2(C)CC[C@]3(C)C(=CC(=O)[C@@H]4[C@@]5(C)CC[C@@H](O)[C@](C)(C(=O)O)[C@@H]5CC[C@]43C)[C@H]12` [11-KETO BOSWELLIC ACID], the IC50 was 3000 nM.

On to `CC(=O)O[C@@H]1CC[C@@]2(C)[C@@H](CC[C@]3(C)[C@@H]2C(=O)C=C2[C@@H]4[C@@H](C)[C@H](C)CC[C@]4(C)CC[C@]23C)[C@@]1(C)C(=O)O` [AKBA], for which the IC50 worked out at 2700 nM.

For the origin of these results see ChEMBL document CHEMBL1155562, “Workup-dependent formation of 5-lipoxygenase inhibitory boswellic acid analogues” (J Nat Prod, 2000).
